The data set has as its system imiquimod (IMQ)-induced psoriasis-like skin inflammation. The experiment in a line: Imiquimod (IMQ)-induced psoriasis-like skin inflammation. Type of data set: in vivo, mice. The settings on record: daily topical. On the procedure: A nanoparticle composition comprising the macrolide tacrolimus was produced as detailed in Example 2. The resulting composition was formulated in a spray suitable for topical delivery on the skin. The efficacy of the produced nanoparticles was subsequently tested in an imiquimod (IMQ)-induced psoriasis-like skin inflammation in mice. To this end, psoriasis-like skin inflammation was induced on the ears and shaved backs of the mice by the daily application of 50 mg of 5% Imiquimod (IMQ) cream. Compared to naïve mice, animals treated with IMQ developed clinical signs of disease including statistically significant increases in psoriasis clinical score and ear thickness over time as well as increased spleen weight (splenomegaly) upon termination of the experiment.

As to `C[C@H]1C[C@H]2[C@@H]3CCC4=CC(=O)C=C[C@]4(C)[C@@]3(F)[C@@H](O)C[C@]2(C)[C@@]1(O)C(=O)CCl` [Clobetasol], for the setting “unwanted side effect”, the body weight result is “significant reduction”. Further, the spleen weight entry (compared to IMQ-only treated mice) is “significantly reduced”. Further, the psoriasis clinical score entry (compared to IMQ-only treated mice, significant by day 3 and throughout the rest of the study) is reported as “significantly reduced”. In addition, the ear thickness entry (compared to IMQ-only treated mice, significant by day 5 and throughout the rest of the study) was “significantly reduced”.

Source of the values: patent publication US10945966B2, “PEGylated lipid nanoparticle with bioactive lipophilic compound” (Eyesiu Medicines B.V., priority 2015, dated 2021).
